Results taken from patent US9593099B2, “Compounds and compositions as protein kinase inhibitors” (Array BioPharma, Inc., priority 2009, dated 2017).
Blank lines part the entries; values can stand above or below the compound they belong to.

Tests used:
[1] = In Vivo Pharmacokinetics Assay in mouse
Protocol: In Vivo Pharmacokinetics Assay
(§1) Full pharmacokinetics study: Male Balb/c mice (n=3, body weights 22-25 g) or male Wistar rats (n=3, body weights 250-300 g) were administered the test compound intravenously via the lateral tail vein or orally via gavage. The formulation was typically a 2.5 mg/mL solution of the compound in 75% PEG300 and 25% D5W. Six blood samples of 50 μL each were collected serially for 24 h after dosing. The blood samples were centrifuged to separate the plasma. Plasma samples were analyzed and quantified by LC-MS/MS.
as §1, with “Rapid” for “Full”, “intravenously (IV)” for “intravenously”, “orally (PO)” for “orally”, “Blood” for “The blood”, “and plasma separated and pooled across” for “to separate”, “three animals at each time point per dose route.” for “plasma.”
For both full and rapid pharmacokinetics studies, the following parameters were calculated by non-compartmental regression analysis using Winnonlin 5.0 software (Pharsight, Mountain View, Calif., USA): plasma clearance (Cl), plasma maximum concentration (Cmax), plasma area-under-the-concentration-time-curve (AUC0-inf), and percent oral bioavailability (F %).

[2] = Liver Microsomal Clearance Assay, human; type: in vitro ADME
Description: Liver Microsomal Clearance Assay
The in vitro microsomal clearance assay is designed to assess potential risks associated with hepatic metabolic stability of compounds. […] These values may be scaled to predict hepatic metabolic clearance rate (CLh, mL/min/kg) and extraction ratio (ER, expressed as a ratio of the predicted hepatic metabolic clearance to hepatic blood flow in that species). In general, compounds with high predicted CLint or ER in vitro are considered to be at high risk for exposure-limiting metabolism in vivo.

[3] = test system: SW620 cells; assay: SW620 Cell Viability Assay (Cell Titer Glo); type: cell-based; conditions: 9 serial dilutions between 10 and 0.002 μM, without MEK inhibitor
Protocol: The present invention also includes combinations of the BRaf inhibitors disclosed in this invention with other agents. In particular, the present invention provides for combinations with MEK1/2 inhibitors. FIG. 1 illustrates that the addition of a MEK small molecule inhibitor can reverse the induced ERK signaling, cell growth and transformation caused by a Raf small molecule inhibitor.
SW620 Cell Viability Assay
SW620 cells were seeded in 1640 RPMI+10% FBS at a density of 1500 cells per 96-well in black walled, clear bottom tissue culture treated plates. Test compounds were serially diluted in DMSO then added to the cells (final DMSO concentration of 0.1%) and incubated at 37° C. and 5% CO2 for 4 days. To measure cell viability, cell plates were brought to room temperature, culture media was removed, and 200 μl of Cell Titer-Glo reagent (Promega, kit components mixed as per the manufacturer's protocol then diluted 1:2 with growth media) was added to each well. Plates were shaken for 5 minutes, then incubated at room temperature for 5 minutes, and the luminescence was measured (Trilux, Perkin Elmer).

[4] = test system: p38α MAP Kinase; assay: A549 p38α MAP Kinase Bright-Glo Reporter Gene Assay; type: cell-based; conditions: ratio of A549 p38 RGA IC50 to A375 CP IC50
Protocol: A549 p38α MAP Kinase Bright-Glo Reporter Gene Assay
A549 cells were stably-transfected with the IL-8 promoter driven reporter, pGL3-IL8-Luc. The cells were plated at 4×10^5/ml into 384-well solid white plates (40 ul/well, 5% CD-FBS, 1×P/S, DMEM) and were incubated overnight (18-20 hours) at 37° C. Test compounds were serially diluted in DMSO, then 50 nl of test solution was added to the incubation (final DMSO concentration of 0.1%). After incubating with test compound for 30 min, cells were stimulated with 1 ng/ml IL-1 beta (10 ul of 5 ng/ml solution per well). Bright-Glo (25 ul/well) was added to measure luciferase expression after 7-8 hours of stimulation.

Structure (SMILES): CCCS(=O)(=O)Nc1cc(Cl)cc(-c2nn(C(C)C)cc2-c2ccnc(NC[C@H](C)NC(=O)OC)n2)c1F [Compound 1, Methyl N-[(2S)-1-[(4-{3-[5-chloro-2-fluoro-3-(propane-1-sulfonamido)phenyl]-1-(propan-2-yl)-1H-pyrazol-4-yl}pyrimidin-2-yl)amino]propan-2-yl]carbamate]
F ([1]; PO/IV 5/2 mg/kg, n = 1): 46 (n = 1) %

Structure (SMILES): CCCS(=O)(=O)Nc1cccc(-c2nn(C(C)C)cc2-c2ccnc(NC[C@H](C)NC(=O)OC)n2)c1F [Compound 3, methyl N-[(2S)-1-[(4-{3-[2-fluoro-3-(propane-1-sulfonamido)phenyl]-1-(propan-2-yl)-1H-pyrazol-4-yl}pyrimidin-2-yl)amino]propan-2-yl]carbamate]
F ([1]; PO/IV 5/2 mg/kg, n = 1): 6 (n = 1) %

Structure (SMILES): COC(=O)N[C@@H](C)CNc1nccc(-c2cn(C(C)C)nc2-c2cccc(NS(C)(=O)=O)c2F)n1 [Compound 4, methyl N-[(2S)-1-({4-[3-(2-fluoro-3-methanesulfonamidophenyl)-1-(propan-2-yl)-1H-pyrazol-4-yl]pyrimidin-2-yl}amino)propan-2-yl]carbamate]
F ([1]; PO/IV 10/2 mg/kg): 36 ± 6%

Structure (SMILES): CNc1nccc(-c2cn(C(C)C)nc2-c2cc(Cl)cc(NS(C)(=O)=O)c2F)n1 [Compound 29, N-(5-chloro-2-fluoro-3-{4-[2-(methylamino)pyrimidin-4-yl]-1-(propan-2-yl)-1H-pyrazol-3-yl}phenyl)methanesulfonamide]
(p38 RGA)/(A375) ratio [4]: 220

Structure (SMILES): COC(=O)NC[C@H](C)Nc1nccc(-c2cn(C(C)C)nc2-c2cc(Cl)cc(NS(C)(=O)=O)c2F)n1 [Compound 32, Methyl N-[(2S)-2-({4-[3-(5-chloro-2-fluoro-3-methanesulfonamidophenyl)-1-(propan-2-yl)-1H-pyrazol-4-yl]pyrimidin-2-yl}amino)propyl]carbamate]
(p38 RGA)/(A375) ratio [4]: 91

Continued, in another order:

F ([1]; PO/IV 10/2 mg/kg): 15 ± 3%
ER (human) [2]: 0.69
Structure (SMILES): COC(=O)N[C@@H](C)CNc1nccc(-c2cn(C(C)C)nc2-c2c(F)ccc(NS(C)(=O)=O)c2F)n1 [Compound 6, methyl N-[(2S)-1-({4-[3-(2,6-difluoro-3-methanesulfonamidophenyl)-1-(propan-2-yl)-1H-pyrazol-4-yl]pyrimidin-2-yl}amino)propan-2-yl]carbamate]

F ([1]; PO/IV 10/2 mg/kg): 8 ± 7%
Structure (SMILES): CCCS(=O)(=O)Nc1ccc(F)c(-c2nn(C(C)C)cc2-c2ccnc(NC[C@H](C)NC(=O)OC)n2)c1F [Compound 7, Methyl N-[(2S)-1-[(4-{3-[2,6-difluoro-3-(propane-1-sulfonamido)phenyl]-1-(propan-2-yl)-1H-pyrazol-4-yl}pyrimidin-2-yl)amino]propan-2-yl]carbamate]

F ([1]; PO/IV 10/2 mg/kg): 43 ± 6%
ER (human) [2]: < 0.21
Structure (SMILES): COC(=O)N[C@@H](C)CNc1nccc(-c2cn(C(C)C)nc2-c2cc(Cl)cc(NS(C)(=O)=O)c2F)n1 [Compound 9, Methyl N-[(2S)-1-({4-[3-(5-chloro-2-fluoro-3-methanesulfonamidophenyl)-1-(propan-2-yl)-1H-pyrazol-4-yl]pyrimidin-2-yl}amino)propan-2-yl]carbamate]
effect on cellular proliferation (negative inhibition in FIG. 1) [3]: induction in cellular proliferation
